Assay results as given in the SangsterLogP compilation.

Assay: method code SF-AS, from PMID: 4083029
Conditions: pH 5.0

logD	Compound
2.44	Cc1ccc2c(=O)n3c(nc2c1)CCCCC3
2.29	O=c1c2c(nc3ccccn13)CCCCCC2
1.61	O=c1c2c(nc3n1CCCCCC3)CCC2
1.86	Cc1ccn2c(=O)c3c(nc2c1)CCCCC3
2.13	O=c1c2c(nc3n1CCCCCC3)CCCC2
2.41	O=c1c2c(nc3n1CCCCC3)CCCCCC2
1.49	O=c1c2ccccc2nc2n1CCCC2
2.07	Cc1ccc2nc3c(c(=O)n2c1)CCCCC3
1.6	O=c1c2c(nc3n1CCCC3)CCCCC2
1.63	O=c1c2c(nc3ccccn13)CCCCC2
1.91	Cc1cccc2nc3c(c(=O)n12)CCCCC3
1.59	Cc1cccc2nc3n(c(=O)c12)CCC3
2.43	O=c1c2c(nc3n1CCCCCC3)CCCCC2
